The subject of assay [1] is recombinant human MAO-A (hMAO-A). Also noted: method as in earlier work. Particulars: ref 27 (Dittman et al., 2004); read-out: IC50, recombinant human MAO-A (literature); cited from earlier work.
Assay [2] concerns the target T1, human M3 muscarinic acetylcholine receptor (hM3R) (Homo sapiens, UniProt P20309).
T1 construct: host or cells: CHO cells
The experiment in a line: M3 (h) functional GPCR assay, agonist effect, intracellular Ca2+. Particulars: 100 µM; % of control response to 1-µM acetylcholine; CHO cells. It is filed as cell-based.

Assay [3] has as its target T2, human M5 muscarinic acetylcholine receptor (hM5R) (Homo sapiens, UniProt P08912).
T2 construct: host or cells: RBL (rat basophilic leukemic) cells
T2 sequence (P08912 1-532): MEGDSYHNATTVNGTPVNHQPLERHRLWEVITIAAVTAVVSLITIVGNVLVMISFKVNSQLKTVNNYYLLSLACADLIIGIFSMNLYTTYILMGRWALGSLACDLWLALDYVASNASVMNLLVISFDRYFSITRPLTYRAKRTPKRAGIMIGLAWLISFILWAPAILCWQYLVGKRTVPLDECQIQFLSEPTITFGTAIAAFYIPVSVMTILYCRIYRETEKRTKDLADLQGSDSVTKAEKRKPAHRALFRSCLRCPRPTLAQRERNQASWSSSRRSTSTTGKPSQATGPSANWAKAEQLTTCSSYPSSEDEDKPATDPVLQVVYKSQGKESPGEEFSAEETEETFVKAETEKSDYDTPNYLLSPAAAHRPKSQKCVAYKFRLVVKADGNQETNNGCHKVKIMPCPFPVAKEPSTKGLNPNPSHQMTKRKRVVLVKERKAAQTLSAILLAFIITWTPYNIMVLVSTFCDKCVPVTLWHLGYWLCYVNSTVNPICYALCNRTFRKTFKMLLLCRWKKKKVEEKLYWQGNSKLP
The experiment in a line: M5 (h) functional GPCR assay, agonist effect, intracellular Ca2+. Format: cell-based. As to conditions: 100 µM; % of control response to 624-nM acetylcholine; RBL cells.

The target in assay [4] is T3, human M4 muscarinic acetylcholine receptor (hM4R) (Homo sapiens, UniProt P08173).
T3 construct: host or cells: CHO cells
T3 sequence (P08173 1-479): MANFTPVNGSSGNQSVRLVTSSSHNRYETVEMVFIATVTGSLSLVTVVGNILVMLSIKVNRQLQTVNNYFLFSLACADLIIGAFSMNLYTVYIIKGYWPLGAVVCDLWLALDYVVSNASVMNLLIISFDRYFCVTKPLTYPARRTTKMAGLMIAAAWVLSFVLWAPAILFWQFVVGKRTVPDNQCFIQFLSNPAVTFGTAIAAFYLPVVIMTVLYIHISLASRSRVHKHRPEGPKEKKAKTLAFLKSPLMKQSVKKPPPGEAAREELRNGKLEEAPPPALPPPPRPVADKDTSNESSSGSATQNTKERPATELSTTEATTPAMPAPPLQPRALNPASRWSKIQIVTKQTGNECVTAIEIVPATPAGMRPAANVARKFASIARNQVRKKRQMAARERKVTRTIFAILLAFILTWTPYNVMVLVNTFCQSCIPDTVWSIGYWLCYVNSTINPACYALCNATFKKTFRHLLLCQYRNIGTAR
The experiment in a line: M4 (h) functional GPCR assay, antagonist effect, cAMP HTRF. It is filed as cell-based. As to conditions: CHO. The procedure:
The cellular and nuclear receptor functional assays were carried out at Eurofins Cerep (Le Bois I’ Eveque, France) following the in-house protocols (catalog items G029-1262, G029-1474, G030-1658, G030-1659, G031-1243, G031-1244, G032-1670, G032-1671, G033-4217, and G033-4212). The experimental methods for the assays were as described in the previous reports and the general methodology is summarized in the Supplementary Information Table S1. Recombinant human Chinese hamster ovary (CHO) cells and rat basophilic leukemic (RBL) cells were transfected with the GPCR genes of interest (hM1R, hM2R, hM3R, hM4R, and hM5R). The functional assay provided the readouts based on the measurements of calcium ion mobilization (for the Gαq/11-coupled receptors) and cAMP level (for the Gαi/o-coupled receptors).
Stable CHO cells expressing the transfected cDNA of human M2 receptors were suspended in a medium containing HBSS buffer complemented with 20-mM HEPES buffer (pH 7.4) and 500-µM IBMX, whereas the stable human M4 receptor cloned CHO cells were distributed in HBSS buffer with 20-mM HEPES/NaOH (pH 7.4), 70-mM NaCl, 5.33-mM KCl, 1.25-mM CaCl2, 0.5-mM MgCl2, 0.41-mM MgSO4, 0.441-mM KH2PO4, 0.3-mM Na2HPO4, 0.1% glucose, and 500-µM IBMX. […] The cAMP level was calculated as the ratio of the signal measured at 665 nm to that measured at 620 nm. […]
Assay Source Stimulus Incubation Measured Detection References […]

T1 sequence (P20309 whole entry): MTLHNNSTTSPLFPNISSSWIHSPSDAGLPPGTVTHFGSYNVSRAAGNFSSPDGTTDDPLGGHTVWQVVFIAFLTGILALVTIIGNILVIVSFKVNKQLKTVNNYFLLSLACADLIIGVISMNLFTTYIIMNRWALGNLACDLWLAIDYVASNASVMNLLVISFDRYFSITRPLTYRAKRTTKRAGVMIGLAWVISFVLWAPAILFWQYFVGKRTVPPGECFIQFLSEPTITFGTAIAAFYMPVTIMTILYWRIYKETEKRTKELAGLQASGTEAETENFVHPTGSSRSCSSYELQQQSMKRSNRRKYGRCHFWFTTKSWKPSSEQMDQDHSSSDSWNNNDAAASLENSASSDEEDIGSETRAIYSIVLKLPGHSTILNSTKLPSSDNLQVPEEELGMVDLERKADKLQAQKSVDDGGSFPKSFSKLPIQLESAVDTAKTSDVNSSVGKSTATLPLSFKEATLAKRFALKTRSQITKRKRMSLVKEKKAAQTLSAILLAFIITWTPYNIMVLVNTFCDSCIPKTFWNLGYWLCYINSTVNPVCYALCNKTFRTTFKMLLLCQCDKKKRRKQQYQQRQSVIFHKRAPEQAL

Consider `Cc1coc2c1C(=O)C(=O)c1c-2ccc2c(C)cccc12` [Tanshinone I], for which the IC50 in assay [1] is 80 µM. In addition, the “% Stimulation, M3” value in assay [2] is listed as −2.3 ± 0.21%. In addition, in assay [3], the “% Stimulation, M5” value is given as −1.6 ± 0.85%. In assay [4], testing at 100 µM gave an inhibition of 56.1 ± 2.4%.

Source of the values: publication PMC8301926 (Biomolecules, 2021).
